Experimental data from US20260200920A1, “SUBSTITUTED AMINOPYRIDINE COMPOUNDS FOR USE AS AKT1 INHIBITORS” (Atavistik Bio, Inc., priority 2023, published 2026).
pIC50: −log10 of the molar value.

Key:
[1] = target: T1, human recombinant kinase full-length wildtype AKT1 (Homo sapiens, UniProt P31749); assay: AKT1 kinase assay (wildtype, TR-FRET, Lance); type: biochemical; conditions: 0.6 nM wildtype AKT1, 50 nM Ulight-CREBtide, either 50 μM ATP or 2 mM ATP, 60 min at RT
T1 construct: Purified human recombinant kinase full-length wildtype AKT1 was expressed in insect cells; made in house; host or cells: insect cells
In short: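 TR-FRET 665/620 ratio quantified phospho-CREBtide formed by PDPK1-activated full-length human AKT1 (0.6 nM, insect-cell-derived) over 60 min at RT with 50 nM ULight-CREBtide and either 50 μM or 2 mM ATP. Compounds were preincubated 15 min with enzyme; IC50 came from 4-parameter fits of 10-point duplicates.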

[2] = target: T2, human recombinant kinase full-length AKT1 E17K (Homo sapiens, UniProt P31749, E17K); assay: AKT1 E17K kinase assay (TR-FRET, Lance); type: biochemical; conditions: 0.6 nM AKT1 E17K, 50 nM Ulight-CREBtide, either 50 μM ATP or 2 mM ATP, 60 min at RT
T2 construct: Purified human recombinant kinase full-length AKT1 E17K was expressed in insect cells; made in house; host or cells: insect cells
In short: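 IC50 came from a 10-point, 4-parameter fit of the 665/620 TR-FRET ratio read with Eu-anti-phospho-CREB (Ser133). Reaction at RT for 60 min after 15 min compound preincubation, using 0.6 nM PDPK1-activated full-length AKT1 E17K (insect-cell), 50 nM Ulight-CREBtide, ATP at 50 μM or 2 mM, HEPES pH 7.5, 1% DMSO.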

T1 sequence (P31749 whole entry): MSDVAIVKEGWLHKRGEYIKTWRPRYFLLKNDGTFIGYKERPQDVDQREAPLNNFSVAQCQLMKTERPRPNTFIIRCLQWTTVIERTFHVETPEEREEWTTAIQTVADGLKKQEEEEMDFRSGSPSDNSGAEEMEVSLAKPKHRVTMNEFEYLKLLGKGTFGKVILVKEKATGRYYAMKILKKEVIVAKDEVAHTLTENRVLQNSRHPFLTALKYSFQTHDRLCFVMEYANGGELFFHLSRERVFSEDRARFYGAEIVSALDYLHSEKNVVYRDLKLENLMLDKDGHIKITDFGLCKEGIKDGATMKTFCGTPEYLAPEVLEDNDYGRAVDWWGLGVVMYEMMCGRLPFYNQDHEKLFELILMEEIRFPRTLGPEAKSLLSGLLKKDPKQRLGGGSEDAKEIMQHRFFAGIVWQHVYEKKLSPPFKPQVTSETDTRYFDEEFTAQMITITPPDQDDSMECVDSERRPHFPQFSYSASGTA
T2 sequence (P31749 whole entry E17K): as the sequence (P31749 whole entry) above, with E17K counted along it

| Compound | pIC50 [1] | pIC50 [2] |
| --- | --- | --- |
| Nc1ncccc1-c1nc2ccc(-c3ccccc3)nc2n1-c1ccc(C2CCCN(CC3CCC(C(=O)O)CC3)C2)cc1 (stereo not drawn) [Compound I-77, 4-((3-(4-(2-(2-aminopyridin-3-yl)-5-phenyl-3H-imidazo[4,5-b]pyridin-3-yl)phenyl)piperidin-1-yl)methyl)cyclohexane-1-carboxylic acid] | > 4.70 | ≤ 5.70 |
| CCN(Cc1ccc(-n2c(-c3cccnc3N)nc3ccc(-c4ccccc4)nc32)c(F)c1)[C@H]1CC[C@@H](C(=O)O)CC1 [Compound I-162] | > 4.70 | ≤ 5.70 |
| CC(NC1CCC(C(=O)O)C1)c1ccc(-n2c(-c3cccnc3N)nc3ccc(-c4ccccc4)nc32)cc1F (stereo not drawn) [Compound I-81, 3-((1-(4-(2-(2-aminopyridin-3-yl)-5-phenyl-3H-imidazo[4,5-b]pyridin-3-yl)-2-fluorophenyl)ethyl)amino)cyclopentane-1-carboxylic acid] | > 4.70 | ≤ 5.70 |
| CNC(=O)[C@H]1CC[C@H](N(C)Cc2ccc(-n3c(-c4cccnc4N)nc4ccc(-c5ccccc5)nc43)cc2)CC1 [Compound I-186, trans-4-((4-(2-(2-aminopyridin-3-yl)-5-phenyl-3H-imidazo[4,5-b]pyridin-3-yl)benzyl)(methyl)amino)-N-methylcyclohexane-1-carboxamide] | > 4.70 | ≤ 5.70 |
| CN(Cc1ccc(-n2c(-c3cccnc3N)nc3ccc(-c4ccccc4)nc32)cc1)[C@H]1CC[C@@H](C(=O)O)CC1 [Compound I-95, (1s,4s)-4-((4-(2-(2-aminopyridin-3-yl)-5-phenyl-3H-imidazo[4,5-b]pyridin-3-yl)benzyl)(methyl)amino)cyclohexane-1-carboxylic acid] | > 4.70 | > 6.30 |
| Cc1nc(N[C@H]2CC[C@H](C(=O)O)CC2)ccc1-n1c(-c2cccnc2N)nc2ccc(-c3ccccc3)nc21 [Compound I-121, (1r,4r)-4-((5-(2-(2-aminopyridin-3-yl)-5-phenyl-3H-imidazo[4,5-b]pyridin-3-yl)-6-methylpyridin-2-yl)amino)cyclohexane-1-carboxylic acid] | > 4.70 | > 6.30 |
| CC(c1ccc(-n2c(-c3cccnc3N)nc3ccc(-c4ccccc4)nc32)cc1)N(C)[C@H]1CC[C@H](C(=O)O)CC1 (stereo partly drawn) [Compound I-176] | > 4.70 | 5.70 to 6.30 |
| CC(c1ccc(-n2c(-c3cccnc3N)nc3ccc(-c4ccccc4)nc32)cc1)N1CCC(C(=O)O)CC1 (stereo not drawn) [Compound I-79, 1-(1-(4-(2-(2-aminopyridin-3-yl)-5-phenyl-3H-imidazo[4,5-b]pyridin-3-yl)phenyl)ethyl)piperidine-4-carboxylic acid] | > 4.70 | ≤ 5.70 |
| Cc1nc(NC[C@H]2CC[C@H](C(=O)O)CC2)ccc1-n1c(-c2cccnc2N)nc2ccc(-c3ccccc3)nc21 [Compound I-131, (1r,4r)-4-(((5-(2-(2-aminopyridin-3-yl)-5-phenyl-3H-imidazo[4,5-b]pyridin-3-yl)-6-methylpyridin-2-yl)amino)methyl)cyclohexane-1-carboxylic acid] | > 4.70 | 5.70 to 6.30 |
| Nc1ncccc1-c1nc2ccc(-c3ccccc3)nc2n1-c1ccc(C2CN(C[C@H]3CC4CC3CC4C(=O)O)C2)cc1 (stereo partly drawn) [Compound I-149] | > 4.70 | > 6.30 |
| Nc1ncccc1-c1nc2ccc(-c3ccccc3)nc2n1-c1ccc(N2CCC(C(=O)O)CC2)nc1 [Compound I-27, 1-(5-(2-(2-aminopyridin-3-yl)-5-phenyl-3H-imidazo[4,5-b]pyridin-3-yl)pyridin-2-yl)piperidine-4-carboxylic acid] | > 4.70 | 5.70 to 6.30 |
| Nc1ncccc1-c1nc2ccc(-c3ccccc3)cc2n1-c1ccc(C2CN(C[C@H]3CC[C@H](C(=O)O)CC3)C2)cc1 [Compound I-221, (1r,4r)-4-((3-(4-(2-(2-aminopyridin-3-yl)-6-phenyl-1H-benzo[d]imidazol-1-yl)phenyl)azetidin-1-yl)methyl)cyclohexane-1-carboxylic acid] | > 4.70 | 5.70 to 6.30 |
